Consider 18 molecules from US20250144067A1, “PERSONALIZED STARVATION THERAPY FOR CANCER” (Faeth Therapeutics, Inc., priority 2021, published 2025).

Structures can show the parent of a compound that is named as a salt. Where two headings read alike, the source gives them in different places.

Test [1] deals with NCI-H292 lung cancer cells. Nature of the test: FDA drug screening, complete media vs cholesterol-free media with simvastatin (TABLE 2). The class given is cell-based, human.
Test [2] concerns NCI-H292 lung cancer cells. Nature of the test: FDA drug screening, complete media vs cholesterol-free media without statin (TABLE 1). The class given is cell-based, human.
Setting [3] is: NCI-H292 cells, FDA drug library screen, cholesterol-free media with simvastatin 0.04 μM.
Where [4] appears, read: NCI-H292 cells, FDA drug library screen, complete media.
Where [5] appears, read: complete media vs cholesterol-free media + simvastatin (0.04 μM), >0 enhanced anti-cancer activity, about 0 neutral, <0 antagonist.
[6] abbreviates: Complete minus Cholesterol-free, >0 enhanced anti-cancer activity, about 0 neutral, <0 antagonist.
Where [7] appears, read: NCI-H292 cells, cholesterol-free media without statin, FDA drug library screen.
[8] abbreviates: NCI-H292 cells, complete media, FDA drug library screen.
[9] abbreviates: Complete minus Cholesterol-free, […].
The mark [10] stands for this setting: NCI-H292 cells, FDA drug library screen, cholesterol-free media without statin.
Where [11] appears, read: NCI-H292 cells, FDA library drug in cholesterol-free media with simvastatin 0.04 μM.
Where [12] appears, read: NCI-H292 cells, FDA library drug in complete media.
Setting [13] is: Complete minus Cholesterol-free, greater than 0 enhanced anti-cancer activity, about 0 neutral, below 0 antagonist.
[14] abbreviates: complete media minus cholesterol-free media + simvastatin, >0 enhanced anti-cancer activity, about 0 neutral, <0 antagonist.
Setting [15] is: Complete minus Cholesterol-free, greater than 0 enhanced anti-cancer activity, about 0 neutral, below 0 antagonists.
Setting [16] is: NCI-H292 cells in cholesterol-free media without statin.
Where [17] appears, read: NCI-H292 cells in complete media.
Setting [18] is: NCI-H292 cells, cholesterol-free media without statin.
The mark [19] stands for this setting: complete vs cholesterol-free media, greater than 0 enhanced anti-cancer activity, about 0 neutral, below 0 antagonists.
The mark [20] stands for this setting: NCI-H292 cells, cholesterol-free media with simvastatin 0.04 μM, FDA drug library screen (TABLE 2).
[21] abbreviates: NCI-H292 cells, complete media, FDA drug library screen (TABLE 2).
Where [22] appears, read: complete media minus cholesterol-free media + simvastatin (0.04 μM), >0 enhanced anti-cancer activity, about 0 neutral, <0 antagonist.

Afatinib (dimaleate): the “Cholesterol-free media + simvastatin (0.04 μM)” value in test [1] (setting [3]) is 0.4722. Besides, in test [1] (setting [4]), the “Complete Media” value was 0.3193. Also, the Difference in test [1] (setting [5]) is −0.15; in test [2] (setting [6]), 0.03. For the same molecule, the Cholesterol-free in test [2] (setting [7]) came to 0.07869. In test [2] (setting [8]), this molecule gave a Complete of 0.1056.
As for `COC1=CC(=O)OC(/C=C/c2ccccc2)C1` (single isomer, unassigned; (+)) [(+)-Kavain], the “Cholesterol-free media + simvastatin (0.04 μM)” value in test [1] (NCI-H292 cells, cholesterol-free media with simvastatin 0.04 μM, […]) is given as 1.009. Moreover, the “Complete Media” value in test [1] (NCI-H292 cells, complete media, […]) amounted to 1.093. In addition, the Difference is reported as 0.08 in test [1] (complete media minus cholesterol-free media + simvastatin, […]) and −0.08 in test [2] (setting [9]). This molecule came in with a Cholesterol-free in test [2] (setting [10]) of 1.138. This molecule also showed a Complete in test [2] (setting [4]) of 1.054.
On to `CCc1c2c(nc3ccc(OC(=O)N4CCC(N5CCCCC5)CC4)cc13)-c1cc3c(c(=O)n1C2)COC(=O)[C@]3(O)CC` [Irinotecan], for which the “Cholesterol-free media + simvastatin (0.04 μM)” value in test [1] (setting [11]) was determined as 0.729. The “Complete Media” value in test [1] (setting [12]) worked out at 0.3631. For the same molecule, the Difference in test [1] (setting [5]) is recorded as −0.37; in test [2] (setting [13]), −0.08. The molecule also returned a Cholesterol-free in test [2] (setting [10]) of 0.2676. The molecule also registered a Complete in test [2] (setting [4]) of 0.1842.
Take `O=C(OC[C@H]1O[C@@H](OC(=O)c2cc(O)c(O)c(OC(=O)c3cc(O)c(O)c(O)c3)c2)[C@H](OC(=O)c2cc(O)c(O)c(OC(=O)c3cc(O)c(O)c(O)c3)c2)[C@@H](OC(=O)c2cc(O)c(O)c(OC(=O)c3cc(O)c(O)c(O)c3)c2)[C@@H]1OC(=O)c1cc(O)c(O)c(OC(=O)c2cc(O)c(O)c(O)c2)c1)c1cc(O)c(O)c(OC(=O)c2cc(O)c(O)c(O)c2)c1` [Tannic acid]: the “Cholesterol-free media + simvastatin (0.04 μM)” value in test [1] (setting [3]) is given as 1.824. In addition, the “Complete Media” value in test [1] (setting [4]) came out at 2.065. Besides, the Difference was 0.24 in test [1] (setting [14]) and −0.60 in test [2] (setting [15]). The molecule also returned a Cholesterol-free in test [2] (setting [16]) of 1.391. Also, the Complete in test [2] (setting [17]) is recorded as 0.7941.
For the molecule `CCOC(=O)COc1ccc2c(=O)cc(-c3ccccc3)oc2c1` [Efloxate], the “Cholesterol-free media + simvastatin (0.04 μM)” value in test [1] (setting [3]) is 1.124. In addition, the “Complete Media” value in test [1] (setting [4]) is 0.9754. Moreover, the Difference in test [1] (setting [5]) was −0.15; in test [2] (setting [19]) it was −0.42. The Cholesterol-free in test [2] (setting [18]) turned out to be 1.349. For the same molecule, the Complete in test [2] (NCI-H292 cells, complete media) was found to be 0.929.
On to `C#C[C@]1(OC(C)=O)CC[C@H]2[C@@H]3CCC4=CC(=O)CC[C@@H]4[C@H]3CC[C@@]21C` [Norethindrone acetate], for which the “Cholesterol-free media + simvastatin (0.04 μM)” value in test [1] (setting [11]) worked out at 1.695. Further, the “Complete Media” value in test [1] (setting [12]) worked out at 0.9691. The Difference is recorded as −0.73 in test [1] (setting [5]) and −0.12 in test [2] (setting [13]). Also, in test [2] (setting [10]), the Cholesterol-free was 1.033. This molecule also displayed a Complete in test [2] (setting [4]) of 0.9116.
As for `CC(C)[C@]12O[C@H]1[C@@H]1O[C@@]13[C@@]1(C)CCC4=C(COC4=O)[C@@H]1C[C@@H]1O[C@@]13C2=O` [Triptonide], the “Cholesterol-free media + simvastatin (0.04 μM)” value in test [1] (setting [20]) came out at 0.02446. The “Complete Media” value in test [1] (setting [21]) is 0.02522. Also, the Difference in test [1] (complete media minus cholesterol-free media + simvastatin (0.04 μM), […]) is 0.00; in test [2] (setting [9]) it was −0.01. Moreover, the Cholesterol-free in test [2] (setting [7]) amounted to 0.01808. For the same molecule, the Complete in test [2] (setting [8]) is recorded as 0.005807.
On to `COc1cc2c(cc1Cc1cccc(Cl)c1F)c(=O)c(C(=O)O)cn2[C@H](CO)C(C)C` [Elvitegravir], for which the “Cholesterol-free media + simvastatin (0.04 μM)” value in test [1] (setting [3]) is 1.032. The “Complete Media” value in test [1] (setting [4]) was determined as 1.435. Further, the results for the Difference in test [1] (setting [14]) and in test [2] (setting [15]) were 0.40 and −0.83, respectively. Besides, in test [2] (setting [16]), the Cholesterol-free stood at 1.777. Moreover, the Complete in test [2] (setting [17]) was 0.9448.
In the case of `C[C@](N)(Cc1ccc(O)c(O)c1)C(=O)O.O` [L-(−)-α-Methyldopa (hydrate)], in test [1] (setting [11]), the “Cholesterol-free media + simvastatin (0.04 μM)” value was determined as 1.97. Moreover, the “Complete Media” value in test [1] (setting [12]) was 1.117. Also, the values for the Difference in test [1] (setting [5]) and in test [2] (setting [15]) were −0.85 and −0.69, respectively. Besides, the Cholesterol-free in test [2] (setting [16]) was found to be 1.665. Further, in test [2] (setting [17]), the Complete was 0.973.
As to `CCCOc1ccc(S(=O)(=O)NCCC2CCCN2C)cc1-c1nc2c(CCC)nn(C)c2c(=O)[nH]1` (centres unmarked) [Udenafil], the “Cholesterol-free media + simvastatin (0.04 μM)” value in test [1] (NCI-H292 cells, cholesterol-free media with simvastatin 0.04 μM, cell growth value in FDA drug screen) was 1.921. In addition, the “Complete Media” value in test [1] (NCI-H292 cells, complete media, cell growth value in FDA drug screen) is 2.002. The Difference in test [1] (setting [14]) is on record as 0.08; in test [2] (setting [6]) it was −0.28. For the same molecule, in test [2] (setting [18]), the Cholesterol-free is listed as 1.473. Besides, the Complete in test [2] (NCI-H292 cells, complete media) is 1.195.
For `O=C([O-])[C@H](O)[C@@H](O)[C@H](O)[C@H](O)CO.[Na+]` [Gluconate (sodium)], the “Cholesterol-free media + simvastatin (0.04 μM)” value in test [1] (setting [11]) was found to be 1.406. For the same molecule, the “Complete Media” value in test [1] (setting [12]) was 0.9873. Also, the Difference in test [1] (complete media vs cholesterol-free media + simvastatin (0.04 μM), […]) is −0.42; in test [2] (setting [9]), −0.62. This molecule also registered a Cholesterol-free in test [2] (setting [16]) of 1.575. In test [2] (setting [17]), this molecule came in with a Complete of 0.95.
Turning to `OC[C@H]1O[C@@](CO)(O[C@H]2O[C@H](CO)[C@@H](O)[C@H](O)[C@H]2O)[C@@H](O)[C@@H]1O` [Sucrose], the “Cholesterol-free media + simvastatin (0.04 μM)” value in test [1] (setting [11]) was 1.867. The “Complete Media” value in test [1] (setting [12]) is given as 0.9772. Moreover, the Difference in test [1] (setting [5]) is −0.89; in test [2] (setting [15]), −0.74. The Cholesterol-free in test [2] (setting [16]) amounted to 1.582. The molecule also returned a Complete in test [2] (setting [17]) of 0.843.
With `CNC(=O)c1ccc(N2C(=S)N(c3cnc(C#N)c(C(F)(F)F)c3)C(=O)C23CCC3)cc1F` [Apalutamide], the “Cholesterol-free media + simvastatin (0.04 μM)” value in test [1] (setting [20]) is given as 1.113. Besides, the “Complete Media” value in test [1] (setting [21]) is listed as 1.082. Moreover, the Difference was −0.03 in test [1] (setting [22]) and −0.37 in test [2] (setting [19]). This molecule also came in with a Cholesterol-free in test [2] (setting [18]) of 1.195. Also, the Complete in test [2] (NCI-H292 cells, complete media) is recorded as 0.8274.
As for Niraparib (tosylate), in test [1], the “Cholesterol-free media + simvastatin (0.04 μM)” value came to 1.448, the “Complete Media” value came out at 1.091 and the Difference was −0.36. Moreover, in test [2], the Cholesterol-free was determined as 1.671 and the Difference is −0.63.
For `CC(=O)OCC(=O)[C@@]1(O)[C@H](C)C[C@H]2[C@@H]3CCC4=CC(=O)C=C[C@]4(C)[C@@]3(F)[C@@H](O)C[C@@]21C` [Dexamethasone acetate], the “Cholesterol-free media + simvastatin (0.04 μM)” value in test [1] (setting [3]) was found to be 0.9553. In test [1] (setting [4]), the “Complete Media” value is 0.8728. Besides, the Difference in test [1] (setting [5]) is −0.08; in test [2] (setting [6]), −0.04. Besides, the Cholesterol-free in test [2] (setting [7]) is recorded as 0.6815. Also, in test [2] (setting [8]), the Complete is reported as 0.6403.
On to Verteporfin, for which the “Cholesterol-free media + simvastatin (0.04 μM)” value in test [1] (setting [3]) came out at 0.616. Also, the “Complete Media” value in test [1] (setting [4]) is given as 0.9298. Further, the Difference in test [1] (setting [14]) is recorded as 0.31; in test [2] (setting [6]), −0.04. The molecule also displayed a Cholesterol-free in test [2] (setting [7]) of 0.26. The molecule further came in with a Complete in test [2] (setting [8]) of 0.2188.
For the molecule `CCN1CC(CCN2CCOCC2)C(c2ccccc2)(c2ccccc2)C1=O` (centres unmarked) [Doxapram (hydrochloride hydrate)], in test [1] (setting [3]), the “Cholesterol-free media + simvastatin (0.04 μM)” value came to 0.894. Also, in test [1] (setting [4]), the “Complete Media” value was 1.128. Besides, the results for the Difference in test [1] (setting [14]) and in test [2] (setting [15]) were 0.23 and −1.01, respectively. For the same molecule, the Cholesterol-free in test [2] (setting [16]) is given as 2.003. Further, the Complete in test [2] (setting [17]) was found to be 0.9924.
In the case of `COC(=O)Nc1nc2cc(C(=O)c3ccc(F)cc3)ccc2[nH]1` [Flubendazole], the “Cholesterol-free media + simvastatin (0.04 μM)” value in test [1] (setting [20]) was determined as 1.122. Moreover, the “Complete Media” value in test [1] (setting [21]) was found to be 1.079. Further, the Difference in test [1] (setting [22]) is −0.04; in test [2] (complete vs cholesterol-free media, >0 enhanced anti-cancer activity, about 0 neutral, <0 antagonist), 0.56. The Cholesterol-free in test [2] (setting [7]) came to 0.549. This molecule displayed a Complete in test [2] (setting [8]) of 1.107.
